According to patent US11840686B2, “Modulation of prekallikrein (PKK) expression” (Ionis Pharmaceuticals, Inc., priority 2013, dated 2023):
Strand notation (5' to 3'): a small letter for the sugar, then the base; units joined by * are phosphorothioate-linked, units joined directly phosphodiester-linked; [ ] holds rarer units or linkages, { } end groups; capitals alone tell only the bases. e = 2'-O-(2-methoxyethyl) (MOE); k = constrained ethyl (cEt); [5mC] = 5-methylcytosine; d = 2'-deoxy (DNA)

System: human PKK mRNA
Assay: Antisense inhibition of human PKK mRNA in HepaRG cells, 1,000 nM, MOE/deoxy/cEt oligonucleotides (Example 3)
Type: cell-based
Outline: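 Readout is percent PKK mRNA reduction against untreated controls, by real-time PCR (RTS3454) adjusted for total RNA via RIBOGREEN. Oligonucleotides, phosphorothioate gapmers of 16 nucleosides with cEt, MOE and deoxy sugars, were delivered at 1,000 nM by electroporation to 20,000 HepaRG cells/well for roughly 24 h.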

[1] = HepaRG cells, electroporation with 1,000 nM antisense oligonucleotide, approx. 24 hours, PKK mRNA by RT-PCR (RTS3454), relative to untreated control cells, Table 26 experiment
[2] = HepaRG cells, 1,000 nM antisense oligonucleotide, Table 29
[3] = Table 27, HepaRG cells, 1,000 nM antisense oligonucleotide, human PKK mRNA
[4] = HepaRG cells, electroporation with 1,000 nM antisense oligonucleotide, approximately 24 hours, primer probe set RTS3454, relative to untreated control cells, experiment of Table 23
[5] = Table 28, HepaRG cells, 1,000 nM antisense oligonucleotide, human PKK mRNA
[6] = Table 21 experiment, HepaRG cells, electroporation with 1,000 nM antisense oligonucleotide, approx. 24 hours, PKK mRNA by RT-PCR (RTS3454), relative to untreated control cells
[7] = PKK mRNA, HepaRG cells, 1,000 nM antisense oligonucleotide, Table 31
[8] = Table 20, HepaRG cells, electroporation with 1,000 nM antisense oligonucleotide, approximately 24 hours, PKK mRNA by RT-PCR (RTS3454), relative to untreated control cells
[9] = Table 22 experiment, HepaRG cells, electroporation with 1,000 nM antisense oligonucleotide, approx. 24 hours, PKK mRNA by RT-PCR (RTS3454), relative to untreated control cells
[10] = HepaRG cells, electroporation with 1,000 nM antisense oligonucleotide, approximately 24 hours, primer probe set RTS3454, relative to untreated control cells, experiment of Table 24
[11] = Table 30, human PKK mRNA, HepaRG cells, 1,000 nM antisense oligonucleotide

Q: Which “% inhibition” value [1] does the source give for “548254 (antisense e[5mC]*e[5mC]*k[5mC]*dA*dT*dG*d[5mC]*dA*dT*dA*d[5mC]*dT*d[5mC]*kG*k[5mC]*e[5mC]) [compound 548254]” here?
A: The value was 39%.

Q: For “548607 (eT*e[5mC]*kG*dG*dT*dG*dG*dT*dG*dG*dG*dA*dT*kT*kG*eG; antisense) [compound 548607]”, which “% inhibition” value [2] is on record?
A: The value was 34%.

Q: For “548146 (eG*eT*k[5mC]*d[5mC]*dT*dT*dA*dG*dG*dA*dT*dG*d[5mC]*kA*kA*eA; antisense) [compound 548146]”, which “% inhibition” value (Table 19, HepaRG cells, electroporation with 1,000 nM antisense oligonucleotide, approximately 24 hours, PKK mRNA by RT-PCR (RTS3454), relative to untreated control cells) is on record?
A: The value was 68%.

Q: For “548336 (antisense eG*e[5mC]*kA*d[5mC]*dA*dT*dT*dA*dG*dG*dA*dG*dG*kT*kA*eG) [compound 548336]”, which “% inhibition” value [3] is on record?
A: The value was 1%.

Q: Which “% inhibition” value [4] does the source give for “547984 (antisense e[5mC]*eG*kA*dA*dT*d[5mC]*dA*dT*d[5mC]*dT*dT*dT*dG*kT*kG*e[5mC]) [compound 547984]” here?
A: The value was 55%.

Q: With “548531 (antisense eG*eT*k[5mC]*dA*dG*dA*dA*dG*dG*d[5mC]*d[5mC]*dT*d[5mC]*kT*kT*eA) [compound 548531]” as the substance, how does the “% inhibition” value [5] read?
A: Its value is 21%.

Q: For “547994 (antisense e[5mC]*e[5mC]*kA*dT*d[5mC]*d[5mC]*dA*dT*dA*dG*dA*dT*dA*kA*kT*e[5mC]) [compound 547994]”, which “% inhibition” value [4] is on record?
A: The value was 53%.

Q: For “548314 (eA*e[5mC]*kA*dA*d[5mC]*d[5mC]*dT*dG*dT*d[5mC]*d[5mC]*dA*dT*kT*k[5mC]*e[5mC]; antisense) [compound 548314]”, which “% inhibition” value [3] is on record?
A: Its value is 43%.

Q: For “548566 (antisense e[5mC]*eA*k[5mC]*dT*d[5mC]*dA*dG*dA*d[5mC]*dT*dG*dT*d[5mC]*kT*kG*eA) [compound 548566]”, which “% inhibition” value [2] is on record?
A: Its value is 0%.

Q: With “547925 (eG*eG*kT*d[5mC]*d[5mC]*dG*dA*d[5mC]*dA*d[5mC]*dA*d[5mC]*dA*kA*kA*eA; antisense) [compound 547925]” as the substance, how does the “% inhibition” value [4] read?
A: Its value is 16%.

Q: With “548592 (e[5mC]*eT*k[5mC]*dA*d[5mC]*d[5mC]*dA*dG*dA*dG*dT*dT*dG*kT*k[5mC]*e[5mC]; antisense) [compound 548592]” as the substance, how does the “% inhibition” value [2] read?
A: Its value is 7%.

Q: “548559 (antisense eG*eA*kG*dA*d[5mC]*dT*dG*dA*dA*dG*d[5mC]*d[5mC]*d[5mC]*kT*k[5mC]*eA) [compound 548559]” was tested. Which “% inhibition” value [2] did it give?
A: Its value is 44%.

Q: For “547791 (antisense eA*e[5mC]*kT*dG*dT*dA*dG*d[5mC]*dA*dA*dA*d[5mC]*dA*kA*kG*eG) [compound 547791]”, which “% inhibition” value [6] is on record?
A: Its value is 49%.

Q: Which “% inhibition” value [2] does the source give for “548609 (antisense eG*eA*kT*d[5mC]*dG*dG*dT*dG*dG*dT*dG*dG*dG*kA*kT*eT) [compound 548609]” here?
A: Its value is 30%.

Q: Which “% inhibition” value [7] does the source give for “548633 (antisense e[5mC]*eA*kA*dG*dG*d[5mC]*dA*dT*dG*dT*dG*dT*dG*k[5mC]*kA*e[5mC]) [compound 548633]” here?
A: The value was 41%.

Q: Which “% inhibition” value [7] does the source give for “548652 (antisense e[5mC]*e[5mC]*kA*d[5mC]*dG*dA*dT*dG*d[5mC]*dT*d[5mC]*dT*dG*kG*k[5mC]*e[5mC]) [compound 548652]” here?
A: The value was 65%.

Q: For “547911 (eT*eG*kG*d[5mC]*dA*dA*d[5mC]*d[5mC]*dA*dA*dT*dT*dT*k[5mC]*kT*eG; antisense) [compound 547911]”, which “% inhibition” value [8] is on record?
A: The value was 0%.

Q: What about the “% inhibition” value [9] of the same substance?
A: The value was 15%.

Q: With “548527 (antisense eT*eG*kT*dT*dT*d[5mC]*dA*dA*dG*dT*dG*d[5mC]*d[5mC]*kA*kG*eA) [compound 548527]” as the substance, how does the “% inhibition” value [5] read?
A: The value was 50%.

Q: With “548264 (antisense e[5mC]*eA*kG*dT*d[5mC]*d[5mC]*dA*dA*dA*dA*dA*dT*d[5mC]*k[5mC]*k[5mC]*eT) [compound 548264]” as the substance, how does the “% inhibition” value [1] read?
A: The value was 60%.

Q: “548042 (eT*eT*kT*dG*dT*dG*dA*dG*dA*dA*dA*dG*dG*kT*kG*eT; antisense) [compound 548042]” was tested. Which “% inhibition” value [10] did it give?
A: The value was 63%.

Q: Which “% inhibition” value [6] does the source give for “547821 (e[5mC]*eA*kA*dA*d[5mC]*d[5mC]*dT*dT*dT*dT*d[5mC]*dT*d[5mC]*k[5mC]*kA*eT; antisense) [compound 547821]” here?
A: The value was 44%.

Q: Which “% inhibition” value [3] does the source give for “548380 (eG*e[5mC]*k[5mC]*d[5mC]*dA*dG*dT*dT*dT*dT*dG*dG*d[5mC]*kA*kA*e[5mC]; antisense) [compound 548380]” here?
A: The value was 7%.

Q: Which “% inhibition” value [10] does the source give for “548052 (e[5mC]*eA*kA*dA*dG*dG*dA*dG*d[5mC]*d[5mC]*dT*dG*dG*kA*kG*eT; antisense) [compound 548052]” here?
A: Its value is 43%.

Q: Which “% inhibition” value [5] does the source give for “548496 (antisense eA*e[5mC]*kT*dG*dA*dA*d[5mC]*d[5mC]*d[5mC]*d[5mC]*d[5mC]*dT*dT*kA*kG*eG) [compound 548496]” here?
A: Its value is 0%.

Q: Which “% inhibition” value [4] does the source give for “547968 (antisense eT*eT*kA*dG*dA*dA*dT*dG*dG*d[5mC]*dA*dG*dG*kG*kT*eT) [compound 547968]” here?
A: Its value is 37%.

Q: “548492 (antisense eG*e[5mC]*k[5mC]*d[5mC]*dA*dA*dT*dG*dT*d[5mC]*d[5mC]*dT*dA*kA*k[5mC]*e[5mC]) [compound 548492]” was tested. Which “% inhibition” value [5] did it give?
A: Its value is 51%.

Q: “548034 (eA*eT*kA*dG*dA*dT*dG*d[5mC]*dG*d[5mC]*d[5mC]*dA*dA*kA*k[5mC]*eA; antisense) [compound 548034]” was tested. Which “% inhibition” value [10] did it give?
A: Its value is 31%.

Q: For “548282 (antisense eG*eT*kG*dG*dG*dT*dT*dT*dG*d[5mC]*dA*d[5mC]*dA*kT*kG*eG) [compound 548282]”, which “% inhibition” value [1] is on record?
A: Its value is 73%.

Q: “547914 (eG*eG*k[5mC]*dA*dA*d[5mC]*dA*dT*d[5mC]*d[5mC]*dA*d[5mC]*dA*kT*k[5mC]*eT; antisense) [compound 547914]” was tested. Which “% inhibition” value [8] did it give?
A: Its value is 74%.

Q: And the “% inhibition” value [9]?
A: Its value is 63%.

Q: Which “% inhibition” value [10] does the source give for “548006 (e[5mC]*eA*kA*dA*dG*dA*dG*dT*dA*dA*d[5mC]*d[5mC]*dA*kG*kA*eG; antisense) [compound 548006]” here?
A: The value was 54%.

Q: “548311 (eT*eG*kA*d[5mC]*d[5mC]*dA*d[5mC]*d[5mC]*dT*d[5mC]*dT*d[5mC]*dG*kG*kG*eT; antisense) [compound 548311]” was tested. Which “% inhibition” value [3] did it give?
A: The value was 10%.

Q: Which “% inhibition” value [11] does the source give for “548445 (antisense e[5mC]*e[5mC]*kT*dA*dT*dG*dT*d[5mC]*dA*d[5mC]*dT*dG*dT*kA*k[5mC]*e[5mC]) [compound 548445]” here?
A: Its value is 62%.

Q: What does the source list for “547891 (eA*eT*kT*dG*dT*dT*d[5mC]*d[5mC]*dG*dG*dT*dA*d[5mC]*kT*k[5mC]*eT; antisense) [compound 547891]”?
A: % inhibition [8]: 84%; % inhibition [9]: 88%

Q: How did the “% inhibition” value [1] turn out when “548246 (eT*eT*k[5mC]*d[5mC]*dA*dT*dG*d[5mC]*dA*dT*dA*d[5mC]*dT*k[5mC]*kG*e[5mC]; antisense) [compound 548246]” was run?
A: The value was 46%.

Q: “548228 (eG*eT*kT*dG*dT*dG*dT*dG*dG*d[5mC]*d[5mC]*d[5mC]*dT*k[5mC]*kT*eT; antisense) [compound 548228]” was tested. Which “% inhibition” value [1] did it give?
A: The value was 37%.

Q: With “548427 (antisense e[5mC]*eT*kA*dT*dA*dA*d[5mC]*dA*dG*dT*dA*dT*d[5mC]*kA*k[5mC]*eT) [compound 548427]” as the substance, how does the “% inhibition” value [11] read?
A: The value was 24%.

Q: “548459 (e[5mC]*eA*kA*d[5mC]*dT*dA*dT*dA*dA*d[5mC]*dA*dG*dT*kA*kT*e[5mC]; antisense) [compound 548459]” was tested. Which “% inhibition” value [5] did it give?
A: The value was 26%.

Q: “548613 (antisense eT*eG*kG*d[5mC]*dG*dG*dG*dA*dT*d[5mC]*dG*dG*dT*kG*kG*eT) [compound 548613]” was tested. Which “% inhibition” value [7] did it give?
A: The value was 39%.

Q: Which “% inhibition” value [2] does the source give for “548571 (eA*e[5mC]*kT*d[5mC]*dT*dG*dA*dG*dG*d[5mC]*d[5mC]*dT*dT*kA*kG*eG; antisense) [compound 548571]” here?
A: The value was 59%.

Q: With “548358 (antisense eA*eT*kT*dT*dG*dG*dG*d[5mC]*d[5mC]*dT*dA*dG*dT*kG*kG*eT) [compound 548358]” as the substance, how does the “% inhibition” value [3] read?
A: The value was 0%.

Q: How did the “% inhibition” value [10] turn out when “548068 (e[5mC]*eA*kA*d[5mC]*dA*dG*dT*dT*dG*dG*dT*dA*dT*kA*kA*eA; antisense) [compound 548068]” was run?
A: The value was 0%.

Q: For “547987 (antisense eA*e[5mC]*kA*dG*d[5mC]*dG*dA*dA*dT*d[5mC]*dA*dT*d[5mC]*kT*kT*eT) [compound 547987]”, which “% inhibition” value [4] is on record?
A: Its value is 64%.

Q: Which “% inhibition” value [4] does the source give for “547962 (antisense eT*eT*kT*dG*d[5mC]*dA*dG*dG*dT*dT*dA*dA*dA*kA*kG*eG) [compound 547962]” here?
A: Its value is 16%.

Q: For “548426 (antisense eT*eA*kT*dA*dA*d[5mC]*dA*dG*dT*dA*dT*d[5mC]*dA*k[5mC]*kT*eG) [compound 548426]”, which “% inhibition” value [11] is on record?
A: The value was 14%.

Q: Which “% inhibition” value [3] does the source give for “548360 (antisense e[5mC]*eA*kA*dG*dA*d[5mC]*dA*dT*d[5mC]*dA*dG*dT*dA*kG*k[5mC]*eT) [compound 548360]” here?
A: Its value is 45%.
